From patent US9302999B2, “Substituted triazoles as herbicides” (E. I. DU PONT DE NEMOURS AND COMPANY, priority 2012, dated 2016)

Assays:
Assay type in all cases: in vivo
[1] = system: Russian thistle (Salsola iberica); experiment: Test D pre-/postemergence: Russian thistle
Text: (§1) Seeds of plant species selected from bluegrass (annual bluegrass, Poa annua), blackgrass (Alopecurus myosuroides), canarygrass (Phalaris minor), chickweed (common chickweed, Stellaria media), galium (catchweed bedstraw, Galium aparine), bromegrass, downy (downy bromegrass, Bromus tectorum), field poppy (Papaver rhoeas), field violet (Viola arvensis), foxtail, green (green foxtail, Setaria viridis), deadnettle (henbit deadnettle, Lamium amplexicaule), ryegrass, Italian (Italian ryegrass, Lolium multiflorum), kochia (Kochia scoparia), lambsquarters (Chenopodium album), oilseed rape (Brassica napus), pigweed (Amaranthus retroflexus), Russian thistle (Salsola iberica), chamomile (scentless chamomile, Matricaria inodora), speedwell (bird's-eye speedwell, Veronica persica), barley, spring (spring barley, Hordeum vulgare), wheat, spring (spring wheat, Triticum aestivum), buckwheat, wild (wild buckwheat, Polygonum convolvulus), mustard, wild (wild mustard, Sinapis arvensis), oat, wild (wild oat, Avena fatua), radish, wild (wild radish, Raphanus raphanistrum), windgrass (Apera spica-venti), barley, winter (winter barley, Hordeum vulgare), and wheat, winter (winter wheat, Triticum aestivum) were planted into a silt loam soil and treated preemergence with test chemicals formulated in a non-phytotoxic solvent mixture which included a surfactant. At the same time, these same crop and weed species were planted in pots containing the planting medium comprising spaghnum peat moss, vermiculite, wetting agent and starter nutrients and treated with postemergence applications of the test chemicals formulated in the same manner. Plants ranged in height from 2 to 18 cm (1- to 4-leaf stage).
(§2) Treated plants and controls were maintained in a controlled growth environment for 14 to 21 days after which time all species were compared to controls and visually evaluated. Plant response ratings, summarized in Table D, are based on a scale of 0 to 100 where 0 is no effect and 100 is complete control. A dash (-) response means no test result.

[2] = system: ryegrass, Italian (Italian ryegrass, Lolium multiflorum); experiment: Test D pre-/postemergence: ryegrass, Italian
In short: (§3)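 Pre- and postemergence herbicide screen. Soil for pre: silt loam; post medium: peat moss, vermiculite, wetting agent, starter nutrients. Plant stage at post: 1- to 4-leaf. Readout: visual % control, 14–21 days.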

[3] = system: blackgrass (Alopecurus myosuroides); experiment: Test D pre-/postemergence: blackgrass
Text: as §1, §2

[4] = system: radish, wild (wild radish, Raphanus raphanistrum); experiment: Test D pre-/postemergence: radish, wild
In short: as §3

[5] = system: barnyardgrass (Echinochloa crus-galli); experiment: Test C flooded paddy test: barnyardgrass; settings: scale 0 to 100 (0 no effect, 100 complete control)
In short: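 Plants at 2-leaf stage in pots flooded 3 cm above soil; compounds applied directly into the paddy water, depth maintained. Visual rating against controls after 13–15 days in greenhouse, scale 0 (no effect) to 100 (complete control).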

[6] = system: galium (catchweed bedstraw, Galium aparine); experiment: Test D pre-/postemergence: galium
In short: as §3

[7] = Postemergence, 31 g ai/ha, scale 0 to 100 (0 no effect, 100 complete control)
[8] = Postemergence, 62 g ai/ha, scale 0 to 100 (0 no effect, 100 complete control)
[9] = Postemergence, 125 g ai/ha, scale 0 to 100, 0 no effect, 100 complete control
[10] = Postemergence, 250 g ai/ha, scale 0 to 100 (0 no effect, 100 complete control)
[11] = Postemergence, 16 g ai/ha, scale 0 to 100
[12] = Preemergence, 31 g ai/ha, scale 0 to 100, 0 no effect, 100 complete control
[13] = Preemergence, 62 g ai/ha, scale 0 to 100
[14] = Preemergence, 125 g ai/ha, scale 0 to 100
[15] = Preemergence, 250 g ai/ha, scale 0 to 100
[16] = Flood (flooded paddy test), 125 g ai/ha, visual rating after 13 to 15 days
[17] = Flood (flooded paddy test), 250 g ai/ha, visual rating after 13 to 15 days

For `COc1nn(-c2ccc(C(F)(F)F)cc2)nc1Cc1ccnc(C(F)(F)F)c1` [Compound 15, 4-[[5-methoxy-2-[4-(trifluoromethyl)phenyl]-2H-1,2,3-triazol-4-yl]methyl]-2-(trifluoromethyl)pyridine], the “Plant response rating: Russian Thistle” value [1, 7] was 100, the “Plant response rating: Russian Thistle” value [1, 8] was 100 and the “Plant response rating: Russian Thistle” value [1, 9] was 100. For the same molecule, the “Plant response rating: Russian Thistle” value [1, 10] was 100, the “Plant response rating, Russian Thistle” value [1, 11] was 60 and the “Plant response rating, Russian Thistle” value [1, 12] was 0. The “Plant response rating, Russian Thistle” value [1, 13] was 0, the “Plant response rating, Russian Thistle” value [1, 14] was 80 and the “Plant response rating, Russian Thistle” value [1, 15] was 80. For the same molecule, the “Plant response rating: Ryegrass, Italian” value [2, 7] was 5, the “Plant response rating: Ryegrass, Italian” value [2, 8] was 5 and the “Plant response rating: Ryegrass, Italian” value [2, 9] was 10. For the same molecule, the “Plant response rating: Ryegrass, Italian” value [2, 10] was 20, the “Plant response rating, Ryegrass, Italian” value [2, 11] was 0 and the “Plant response rating, Ryegrass, Italian” value [2, 12] was 0. For the same molecule, the “Plant response rating, Ryegrass, Italian” value [2, 13] was 5, the “Plant response rating, Ryegrass, Italian” value [2, 14] was 25 and the “Plant response rating, Ryegrass, Italian” value [2, 15] was 70. For the same molecule, the “Plant response rating: Blackgrass” value [3, 7] was 15, the “Plant response rating: Blackgrass” value [3, 8] was 30 and the “Plant response rating: Blackgrass” value [3, 9] was 50. The “Plant response rating: Blackgrass” value [3, 10] was 85, the “Plant response rating, Blackgrass” value [3, 11] was 15 and the “Plant response rating, Blackgrass” value [3, 12] was 0. The “Plant response rating, Blackgrass” value [3, 13] was 25, the “Plant response rating, Blackgrass” value [3, 14] was 80 and the “Plant response rating, Blackgrass” value [3, 15] was 90. For the same molecule, the “Plant response rating: Radish, Wild” value [4, 7] was 100, the “Plant response rating: Radish, Wild” value [4, 8] was 100 and the “Plant response rating: Radish, Wild” value [4, 9] was 100. The “Plant response rating: Radish, Wild” value [4, 10] was 100, the “Plant response rating, Radish, Wild” value [4, 11] was 100 and the “Plant response rating, Radish, Wild” value [4, 12] was 0. The “Plant response rating, Radish, Wild” value [4, 13] was 0, the “Plant response rating, Radish, Wild” value [4, 14] was 100 and the “Plant response rating, Radish, Wild” value [4, 15] was 100. The pest or weed control at 62 g/ha ([5]; Echinochloa crus-galli, Flood (flooded paddy test), 62 g ai/ha, visual rating after 13 to 15 days, read-out: Plant response rating, Barnyardgrass) was 65%, the pest or weed control at 250 g/ha ([5]; Echinochloa crus-galli, Flood (flooded paddy test), 250 g ai/ha, visual rating after 13 to 15 days, read-out: Plant response rating, Barnyardgrass) was 75% and the “Plant response rating: Galium” value [6, 7] was 55. For the same molecule, the “Plant response rating: Galium” value [6, 8] was 70, the “Plant response rating: Galium” value [6, 9] was 100 and the “Plant response rating: Galium” value [6, 10] was 100. For the same molecule, the “Plant response rating, Galium” value [6, 11] was 50, the “Plant response rating, Galium” value [6, 13] was 30 and the “Plant response rating, Galium” value [6, 14] was 100. For the same molecule, the “Plant response rating, Galium” value [6, 15] was 100.
For `Cc1nn(-c2ccc(C(F)(F)F)cn2)nc1Oc1ccnc(C(F)(F)F)c1` [Compound 23], the “Plant response rating: Russian Thistle” value [1, 7] was 50, the “Plant response rating: Russian Thistle” value [1, 8] was 70 and the “Plant response rating: Russian Thistle” value [1, 9] was 90. For the same molecule, the “Plant response rating: Russian Thistle” value [1, 10] was 100, the “Plant response rating, Russian Thistle” value [1, 11] was 50 and the “Plant response rating: Ryegrass, Italian” value [2, 7] was 10. For the same molecule, the “Plant response rating: Ryegrass, Italian” value [2, 8] was 10, the “Plant response rating: Ryegrass, Italian” value [2, 9] was 10 and the “Plant response rating: Ryegrass, Italian” value [2, 10] was 15. For the same molecule, the “Plant response rating, Ryegrass, Italian” value [2, 11] was 5, the “Plant response rating: Blackgrass” value [3, 7] was 10 and the “Plant response rating: Blackgrass” value [3, 8] was 10. The “Plant response rating: Blackgrass” value [3, 9] was 20, the “Plant response rating: Blackgrass” value [3, 10] was 30 and the “Plant response rating, Blackgrass” value [3, 11] was 5. The “Plant response rating: Radish, Wild” value [4, 7] was 20, the “Plant response rating: Radish, Wild” value [4, 8] was 40 and the “Plant response rating: Radish, Wild” value [4, 9] was 75. For the same molecule, the “Plant response rating: Radish, Wild” value [4, 10] was 100, the “Plant response rating, Radish, Wild” value [4, 11] was 20 and the “Plant response rating, Barnyardgrass” value ([5]; Flood (flooded paddy test), 62 g ai/ha, visual rating after 13 to 15 days) was 0. For the same molecule, the “Plant response rating, Barnyardgrass” value [5, 16] was 20, the “Plant response rating, Barnyardgrass” value [5, 17] was 25 and the “Plant response rating, Barnyardgrass” value ([5]; Flood, 31 g ai/ha) was 0. The “Plant response rating: Galium” value [6, 7] was 30, the “Plant response rating: Galium” value [6, 8] was 50 and the “Plant response rating: Galium” value [6, 9] was 70. The “Plant response rating: Galium” value [6, 10] was 90 and the “Plant response rating, Galium” value [6, 11] was 25.
With `Cc1nn(-c2ccc(C(F)(F)F)cn2)nc1Cc1cccc(C(F)(F)F)c1` [Compound 106] the “Plant response rating: Russian Thistle” value [1, 7] was 25, the “Plant response rating: Russian Thistle” value [1, 8] was 30 and the “Plant response rating: Russian Thistle” value [1, 9] was 60. For the same molecule, the “Plant response rating: Russian Thistle” value [1, 10] was 100, the “Plant response rating, Russian Thistle” value [1, 11] was 20 and the “Plant response rating, Russian Thistle” value [1, 12] was 0. For the same molecule, the “Plant response rating, Russian Thistle” value [1, 13] was 0, the “Plant response rating, Russian Thistle” value [1, 14] was 0 and the “Plant response rating, Russian Thistle” value [1, 15] was 0. For the same molecule, the “Plant response rating: Ryegrass, Italian” value [2, 7] was 5, the “Plant response rating: Ryegrass, Italian” value [2, 8] was 5 and the “Plant response rating: Ryegrass, Italian” value [2, 9] was 10. The “Plant response rating: Ryegrass, Italian” value [2, 10] was 20, the “Plant response rating, Ryegrass, Italian” value [2, 11] was 5 and the “Plant response rating, Ryegrass, Italian” value [2, 12] was 0. The “Plant response rating, Ryegrass, Italian” value [2, 13] was 0, the “Plant response rating, Ryegrass, Italian” value [2, 14] was 0 and the “Plant response rating, Ryegrass, Italian” value [2, 15] was 0. For the same molecule, the “Plant response rating: Blackgrass” value [3, 7] was 10, the “Plant response rating: Blackgrass” value [3, 8] was 10 and the “Plant response rating: Blackgrass” value [3, 9] was 20. The “Plant response rating: Blackgrass” value [3, 10] was 30, the “Plant response rating, Blackgrass” value [3, 11] was 5 and the “Plant response rating, Blackgrass” value [3, 12] was 0. For the same molecule, the “Plant response rating, Blackgrass” value [3, 13] was 0, the “Plant response rating, Blackgrass” value [3, 14] was 0 and the “Plant response rating, Blackgrass” value [3, 15] was 0. The “Plant response rating: Radish, Wild” value [4, 7] was 100, the “Plant response rating: Radish, Wild” value [4, 8] was 100 and the “Plant response rating: Radish, Wild” value [4, 9] was 100. For the same molecule, the “Plant response rating: Radish, Wild” value [4, 10] was 100, the “Plant response rating, Radish, Wild” value [4, 11] was 100 and the “Plant response rating, Radish, Wild” value [4, 12] was 0. For the same molecule, the “Plant response rating, Radish, Wild” value [4, 13] was 30, the “Plant response rating, Radish, Wild” value [4, 14] was 30 and the “Plant response rating, Radish, Wild” value [4, 15] was 30. The “Plant response rating, Barnyardgrass” value [5, 16] was 20, the “Plant response rating, Barnyardgrass” value [5, 17] was 40 and the “Plant response rating, Barnyardgrass” value ([5]; Flood, 31 g ai/ha) was 0. For the same molecule, the “Plant response rating, Barnyardgrass” value ([5]; Flood, 62 g ai/ha) was 0, the “Plant response rating: Galium” value [6, 7] was 40 and the “Plant response rating: Galium” value [6, 8] was 40. For the same molecule, the “Plant response rating: Galium” value [6, 9] was 40, the “Plant response rating: Galium” value [6, 10] was 60 and the “Plant response rating, Galium” value [6, 11] was 20. The “Plant response rating, Galium” value [6, 12] was 0, the “Plant response rating, Galium” value [6, 13] was 0 and the “Plant response rating, Galium” value [6, 14] was 40. For the same molecule, the “Plant response rating, Galium” value [6, 15] was 80.
